Measured values: ChEMBL document CHEMBL3301361, “Experimental in vitro DMPK and physicochemical data on a set of publicly disclosed compounds”
In brackets after ≈: the same amount, converted by molar mass.

Assay: physchem
Conditions: pH 7.4 buffer

SMILES	solubility thermodynamic [µM]
COc1cc(N2CCN(C(C)=O)CC2)ccc1Nc1ncc(Cl)c(-c2cnc3c(F)cccn23)n1	2.8 (≈ 1.39 µg/mL)
O=C(c1ccc(F)cc1)C1CCN(C(=O)c2cc(F)cc(F)c2)CC1	6 (≈ 2.08 µg/mL)
CSc1nc(N)n2nc(-c3ccco3)nc2n1	151 (≈ 37.6 µg/mL)
COCC(=O)NC/C=C/c1ccc2ncnc(Nc3ccc(Oc4ccc(C)nc4)c(C)c3)c2c1 [CP-724714]	1.1 (≈ 0.516 µg/mL)
COCCOc1cc2nccc(Nc3ccc(Cl)cc3F)c2cc1OC	33.9 (≈ 12.8 µg/mL)
CC1(C)C=Cc2c(O)nc3ccccc3c2O1 [FLINDERSINE]	67.6 (≈ 15.4 µg/mL)
O=C(Nc1cccc(O)c1)c1ccc(OCCCN2CCCC2)cc1OC1CCCC1	58.9 (≈ 25 µg/mL)
Nc1nc2cc(Cl)ccc2n1CCCO	1320 (≈ 298 µg/mL)
CC(C)Oc1cc(OCC2CCCC2)cc(C(=O)Nc2ccc(C(=O)O)cn2)c1	45.7 (≈ 18.2 µg/mL)
COc1cc(OC2CNC2)ccc1Nc1ncc(Cl)c(-c2cnc3ccccn23)n1	81.3 (≈ 34.4 µg/mL)
CS(=O)(=O)N1CC2(CCN(C(=O)Nc3cnc(-c4ccccc4)cn3)CC2)c2ccccc21	0.2 (≈ 0.0927 µg/mL)
CCCNC(=O)Nc1ccc(Oc2ncnc3cc(OC)c(OC)cc23)cc1Cl [KRN-633]	0.2 (≈ 0.0834 µg/mL)
Oc1cc(-c2ccc3c(c2)OCO3)nc2ccccc12	6.2 (≈ 1.64 µg/mL)
C[C@H](C#N)NC(=O)[C@@H]1CCCC[C@H]1C(=O)N1CCc2[nH]c3ccc(F)cc3c2C1	457 (≈ 181 µg/mL)
O=C(Nc1cccc(O)c1)c1ccc(OCCCN2CCCC2)cc1OCc1ccccn1	513 (≈ 230 µg/mL)
CCN1CCC[C@@H](C(=O)N2CCN(C(=O)Nc3ccc(Cl)c(Cl)c3)CC2)C1	1050 (≈ 433 µg/mL)
COc1cc2c(Nc3cc(CC(=O)Nc4cccc(F)c4)[nH]n3)ncnc2cc1OCCCN1CCC[C@@H]1CO	162 (≈ 89.1 µg/mL)
CNC(=O)[C@@H](C)N(C)Cc1cc2c(Nc3cccc(Cl)c3F)ncnc2cc1OC	646 (≈ 279 µg/mL)
O=C(Nc1ccccc1)Nc1cnns1 [THIDIAZURON]	178 (≈ 39.2 µg/mL)
Cc1cc2n[nH]c(=O)n2c2cc(-c3ccc([S+](C)[O-])cc3)ccc12 (centres undefined)	1.9 (≈ 0.641 µg/mL)
O=C(c1ccc(F)cc1)C1CCN(C(=O)c2ccccc2Cl)CC1	28.8 (≈ 9.96 µg/mL)
COCCOc1cc2ncnc(Nc3ncc(CC(=O)Nc4cccc(F)c4)s3)c2cc1OC	0.6 (≈ 0.29 µg/mL)
CC(C)(C)c1cc(=O)n(-c2ccccc2)[nH]1	708 (≈ 153 µg/mL)

SMILES	solubility thermodynamic [µM]
O=C1NCNC1(c1ccccc1)c1ccccc1 [DOXENITOIN]	316 (≈ 75.3 µg/mL)
c1ccc(-c2nc(-c3ccccc3)c(-c3ccccc3)o2)cc1	1.9 (≈ 0.565 µg/mL)
O=C(c1ccccc1)C1CCN(C(=O)c2ccc(Cl)cc2)CC1	28.8 (≈ 9.44 µg/mL)
Nc1c2c(O)nc(O)cc2nn1-c1ccccc1	178 (≈ 43.1 µg/mL)
O=C(Nc1ccccc1)c1cc(-n2cnnc2)ccc1Cl	407 (≈ 122 µg/mL)
Cc1cc(CNc2ncc(Br)c(Nc3cc(CCc4ccccc4)[nH]n3)n2)on1	1.7 (≈ 0.772 µg/mL)
O=C1NCCc2c1[nH]c1ccccc21	1260 (≈ 234 µg/mL)
O=C(Nc1ccccc1)c1ccc(OCCCN2CCCC2)cc1OCc1cccnc1	398 (≈ 172 µg/mL)
Cn1[nH]c(CSc2ccc(Cl)cc2)cc1=O	468 (≈ 119 µg/mL)
CCn1cc(NC(=O)Cc2ccc(Oc3ccnc4cc(OC)c(OC)cc34)cc2)cn1	10.7 (≈ 4.63 µg/mL)
Cc1ccc2c(c1)-c1ccccc1S(=O)(=O)N2	631 (≈ 155 µg/mL)
Cc1cc(C)c(C(=O)N[C@@H](CNC(=O)CO[C@@H]2C[C@@H](CNc3ccccn3)N(C(=O)OCc3ccccc3)C2)C(=O)O)c(C)c1	389 (≈ 240 µg/mL)
CC(=O)NC1CCN(C(=O)CN2CCN(CCc3c(-c4cc(C)cc(C)c4)[nH]c4sc(C(C)(C)C(=O)N5C6CCC5CC6)cc34)CC2)C1 (centres undefined)	107 (≈ 72.1 µg/mL)
c1ccc(-c2nc[nH]c2-c2ccccc2)cc1	22.9 (≈ 5.04 µg/mL)
C[C@@H]1CN(c2nc(N3CCOCC3)c3ccc(-c4ccccc4)nc3n2)C[C@H](C)O1	1.8 (≈ 0.73 µg/mL)
CNC(=O)[C@@H](NC(=O)[C@H](CC(C)C)[C@H](OCc1cc2ccccc2n(C)c1=O)C(=O)NO)C(C)(C)C	269 (≈ 135 µg/mL)
CN(C)C(=O)Nc1ccc(Cl)c(Cl)c1 [DCMU]	132 (≈ 30.7 µg/mL)
C[C@H](Oc1cccc2ncnc(Nc3ccc4c(cnn4Cc4nccs4)c3)c12)C(=O)N(C)C	31.6 (≈ 15 µg/mL)
CC(C)(C)C(O)C(Cc1ccccc1Cl)n1cncn1 (centres undefined)	398 (≈ 117 µg/mL)
CC(C)OC(=O)c1cn(Cc2c(F)cccc2F)c2sc(-c3ccc(NC(=O)C(C)C)cc3)c(CN(C)Cc3ccccc3)c2c1=O	38 (≈ 25 µg/mL)
COc1cc2ncnc(Nc3cccc(Cl)c3F)c2cc1CN(C)C1(C(N)=O)CN(C(C)C)C1	25.7 (≈ 12.5 µg/mL)
CC(=O)Nc1ccc(-c2ccccc2)cc1	79.4 (≈ 16.8 µg/mL)
CC(=O)n1c2ccccc2c2cc(NC(=O)CCc3ccncc3)ccc21	2.1 (≈ 0.751 µg/mL)

SMILES	solubility thermodynamic [µM]
C[C@H]1CN(C(=O)OC(C)(C)C)CCN1c1ncc(OCc2ccc(S(C)(=O)=O)cc2)cn1	2.3 (≈ 1.06 µg/mL)
c1ccc2c(c1)Nc1ccccc1S2 [PHENOTHIAZINE]	2.9 (≈ 0.578 µg/mL)
Cc1ccc(Oc2ccc(Nc3ncnc4cccc(O[C@H](C)C(=O)N(C)C)c34)cc2C)cn1	22.9 (≈ 10.5 µg/mL)
COc1ccc2c(Oc3cnc(CC(=O)Nc4cn(C)nc4C)c(OC)c3)ccnc2c1	15.1 (≈ 6.55 µg/mL)
COC1CCN(C(=O)C2CCN(CCc3c(-c4cc(C)cc(C)c4)[nH]c4sc(C(C)(C)C(=O)N5C6CCC5CC6)cc34)CC2)C1 (centres undefined)	70.8 (≈ 44.7 µg/mL)
O=C(c1ccc(F)cc1)C1CCN(C(=O)Nc2ccc(F)cc2)CC1	4.5 (≈ 1.55 µg/mL)
Cc1ncc(-c2ccnc(Nc3ccc(N4CCN(S(C)(=O)=O)CC4)cc3)n2)n1C(C)C	8.9 (≈ 4.05 µg/mL)
N#CC1(NC(=O)[C@@H]2CCCC[C@H]2C(=O)N2CCc3[nH]c4ccccc4c3C2)CC1	912 (≈ 356 µg/mL)
COc1cc2ncnc(Nc3ccc(F)c(Cl)c3)c2cc1CN(C)[C@H](C)C(N)=O	15.5 (≈ 6.48 µg/mL)
CCOC(=O)Cc1csc(NC(=O)Nc2ccc(Cl)cc2)n1	2.6 (≈ 0.883 µg/mL)
C[C@@H](Oc1cccc2ncnc(Nc3ccc4c(cnn4Cc4ccccn4)c3)c12)C(N)=O	4 (≈ 1.76 µg/mL)
Cc1ncc(-c2ccnc(Nc3ccc(N4CCOCC4)cc3)n2)n1C(C)C	56.2 (≈ 21.3 µg/mL)
Cc1cn(-c2cc(NC(=O)c3ccc(C)c(Nc4nccc(-c5cccnc5)n4)c3)cc(C(F)(F)F)c2)cn1 [NILOTINIB]	1.1 (≈ 0.582 µg/mL)
Cc1cc(O)nc(SCC(=O)c2ccccc2)n1	708 (≈ 184 µg/mL)
CCn1cc(NC(=O)Cc2ccc(Oc3ncnc4cc(OC)c(OC)cc34)cc2)cn1	24 (≈ 10.4 µg/mL)
CCn1ccc(NC(=O)Cc2ccc(Oc3ncnc4cc(OC)c(OC)cc34)cc2)n1	32.4 (≈ 14 µg/mL)
COc1cc2c(NC(=O)Nc3ccccc3Cl)ncnc2cc1OCC1CCN(C)CC1	0.3 (≈ 0.137 µg/mL)
CC(=O)N1CCN(CCOc2ccc(C3(O)CCN(c4ccc5nnc(C(F)(F)F)n5n4)CC3)cc2)CC1	170 (≈ 90.6 µg/mL)
O=C(NCc1ccccc1)c1cccn(Cc2ccccc2)c1=O	26.3 (≈ 8.37 µg/mL)
O=S(=O)(NCc1cc(-c2ccccc2Cl)no1)c1ccc(Cl)cc1	3.1 (≈ 1.19 µg/mL)
N#CCNC(=O)[C@@H]1CCCC[C@H]1C(=O)N1CCN(c2ccccc2)CC1	631 (≈ 224 µg/mL)
C[C@@H](Oc1cccc2ncnc(Nc3ccc4c(cnn4Cc4cccc(F)c4)c3)c12)C(=O)N(C)C	2.6 (≈ 1.26 µg/mL)
CC/C(=C(/CC)c1ccc(O)cc1)c1ccc(O)cc1 [DIETHYLSTILBESTROL]	25.1 (≈ 6.74 µg/mL)
